Laboratory results as given in patent US10626081B2, “Farnesoid X receptor agonists and uses thereof” (Metacrine, Inc., priority 2015, dated 2020).

The compounds below were run against T1, FXR (Homo sapiens, UniProt Q96RI1) (assay: In Vitro FXR Assay (TK): TK-ECRE-luc reporter in transfected CV-1 cells). Settings: CV-1 cells transfected with hFXR, hRXR, 18 h incubation, luminescence.
T1 construct: expressed in transfected cells; host or cells: CV-1 cells
T1 sequence (Q96RI1 1-486): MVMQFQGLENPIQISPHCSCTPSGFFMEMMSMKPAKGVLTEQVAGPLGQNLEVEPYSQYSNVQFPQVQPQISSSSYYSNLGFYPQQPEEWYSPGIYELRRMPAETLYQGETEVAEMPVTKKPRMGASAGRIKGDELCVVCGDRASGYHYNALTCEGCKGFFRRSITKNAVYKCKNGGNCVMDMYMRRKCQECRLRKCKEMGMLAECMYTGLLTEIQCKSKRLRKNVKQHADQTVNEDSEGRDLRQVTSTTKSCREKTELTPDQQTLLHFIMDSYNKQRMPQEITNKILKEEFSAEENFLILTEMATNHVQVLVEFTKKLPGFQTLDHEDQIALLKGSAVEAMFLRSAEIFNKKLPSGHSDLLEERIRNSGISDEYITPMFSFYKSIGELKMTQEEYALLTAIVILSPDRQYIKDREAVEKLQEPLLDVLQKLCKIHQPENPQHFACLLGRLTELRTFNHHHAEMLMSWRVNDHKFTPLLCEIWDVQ
T1 sequence (P19793 1-462 partner): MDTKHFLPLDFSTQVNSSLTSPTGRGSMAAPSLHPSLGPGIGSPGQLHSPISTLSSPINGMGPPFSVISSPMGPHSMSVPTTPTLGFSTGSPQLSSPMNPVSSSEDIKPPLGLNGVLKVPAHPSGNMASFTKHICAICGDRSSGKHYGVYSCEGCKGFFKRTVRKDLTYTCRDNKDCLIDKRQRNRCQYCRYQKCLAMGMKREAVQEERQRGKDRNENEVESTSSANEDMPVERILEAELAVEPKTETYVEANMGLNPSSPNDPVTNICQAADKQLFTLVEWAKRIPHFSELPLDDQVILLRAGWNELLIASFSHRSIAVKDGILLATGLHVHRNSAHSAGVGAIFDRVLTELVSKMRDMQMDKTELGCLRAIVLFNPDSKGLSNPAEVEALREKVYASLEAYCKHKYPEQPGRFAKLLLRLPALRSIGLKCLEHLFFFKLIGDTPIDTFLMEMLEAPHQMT
Assay type: cell-based
Method: Example B-2: In Vitro FXR Assay (TK)
CV-1 cells were seeded at a density of 2,000,000 cells in a T175 flask with DMEM+10% charcoal double-stripped FBS and incubated at 37° C. in 5% CO2 for 18 h (O/N).
After 18 h of incubation, the medium in the T175 flask was changed with fresh DMEM+10% charcoal super-stripped serum. In a polypropylene tube, 2500 μL OptiMEM (Life Technologies, Cat #31985-062) was combined with expression plasmids for hFXR, hRXR, TK-ECRE-luc and pCMX-YFP. The tube was then briefly vortexed and incubated at room temperature for 5 minutes. Transfection reagent (X-tremeGENE HP from Roche, Cat #06 366 236 001) was added to the OptiMEM/plasmid mixture vortexed and incubated at room temperature for 20 minutes. Following incubation, the transfection reagent/DNA mixture complex was added to cells in the T175 flask and the cells were incubated at 37° C. in 5% CO2 for 18 h (O/N).
Compounds were serially diluted in DMSO and added to transfected CV-1 cells. The cells were then incubated for 18 hrs. The next day cells were lysed and examined for luminescence.

SMILES | EC50 [nM]
CN(C)c1ccc(-c2ccc(CN(C(=O)C3CCCCC3)c3cccc(/C=C/C(=O)OC4CCCCC4)c3)cc2)cc1 [86.1, (E)-Cyclohexyl 3-(3-(N-((4′-(dimethylamino)-[1,1′-biphenyl]-4-yl)methyl)cyclohexanecarboxamido)phenyl) acrylate] | > 10000
COC(=O)/C=C/c1cccc(N(Cc2ccc(-c3ccc(N(C)S(C)(=O)=O)cc3)cc2)C(=O)C2CCCCC2)c1 [75.6, (E)-Methyl 3-(3-(N-((4′-(N-methylmethylsulfonamido)-[1,1′-biphenyl]-4-yl)methyl)cyclohexanecarboxamido)phenyl) acrylate] | 1000 to 10000
COC(=O)/C=C/c1cccc(N(Cc2ccc(-c3ccc4cnoc4c3)cc2)C(=O)C2CCCCC2)c1 [75.13, (E)-Methyl 3-(3-(N-(4-(benzo[d]isoxazol-6-yl)benzyl)cyclohexanecarboxamido)phenyl) acrylate] | > 10000
COC(=O)/C=C/c1cccc(N(Cc2ccc(N(C)C(=O)c3ccccc3)cc2)C(=O)C2CCCCC2)c1 [compound 101, (E)-Methyl 3-(3-(N-(4-(N-methylbenzamido)benzyl)cyclohexane-carboxamido)phenyl)acrylate] | > 10000
COC(=O)/C=C/c1cccc(N(Cc2ccc(-c3ccc(N(C)C)cc3)cc2)C(=O)[C@H]2CC[C@H](NC(=O)OC)CC2)c1 [compound 98, (E)-Methyl 3-(3-(trans-N-((4′-(dimethylamino)-[1,1′-biphenyl]-4-yl)methyl)-4-((methoxycarbonyl)amino)cyclo-hexanecarboxamido)phenyl)acrylate] | ≤ 1000
COC(=O)/C=C/c1cccc(N(Cc2ccc(-c3ccc(N(C)C)cc3)cc2)C(=O)C2CCC(SC)CC2)c1 (stereo not shown) [13.13, (E)-Methyl 3-(3-(N-((4′-(dimethylamino)-[1,1′-biphenyl]-4-yl)methyl)-4-(methylthio)cyclohexanecarboxamido)phenyl)acrylate] | 1000 to 10000
COC(=O)/C=C/c1cccc(N(Cc2ccc(-c3ccc(N(C)C)cc3)cc2)C(=O)C2CCS(=O)(=O)CC2)c1 [13.8, (E)-Methyl 3-(3-(N-((4′-(dimethylamino)-[1,1′-biphenyl]-4-yl)methyl)-1,1-dioxidotetrahydro-2H-thiopyran-4-carboxamido)phenyl)acrylate] | > 10000
COC(=O)/C=C/c1cccc(N(Cc2ccc(-c3ccc(N(C)C)cc3)cc2)C(=O)C2(C)CCOCC2)c1 [13.6, (E)-Methyl 3-(3-(N-((4′-(dimethylamino)-[1,1′-biphenyl]-4-yl)methyl)-4-methyltetrahydro-2H-pyran-4-carboxamido)phenyl)acrylate] | 1000 to 10000
COC(=O)/C=C/c1cccc(N(Cc2ccc(-c3ccc(N(C)C)cc3)cc2)C(=O)[C@H]2CC[C@H](NC(=O)OC(C)(C)C)CC2)c1 [compound 96, (E)-Methyl 3-(3-(trans-4-((tert-butoxycarbonyl)amino)-N-((4′-(dimethylamino)-[1,1′-biphenyl]-4-yl)methyl)cyclohexanecarboxamido)phenyl) acrylate] | ≤ 1000
CC(C)=CCc1cccc(N(Cc2ccc(-c3ccc(N(C)C)cc3)cc2)C(=O)C2CCCCC2)c1 [compound 99, N-((4′-(Dimethylamino)-[1,1′-biphenyl]-4-yl)methyl)-N-(3-(3-methylbut-2-en-1-yl)phenyl) cyclohexanecarboxamide] | > 10000
CN(C)c1ccc(-c2ccc(CN(C(=O)C3CCCCC3)c3cccc(/C=C/C(=O)OCC4CCCO4)c3)cc2)cc1 (stereo not shown) [86.5, (E)-(Tetrahydrofuran-2-yl) methyl 3-(3-(N-((4′-(dimethylamino)-[1,1′-biphenyl]-4-yl)methyl)cyclohexanecarboxamido)phenyl) acrylate] | > 10000
COC(=O)/C=C/c1cccc(N(Cc2ccc(-c3ccc4c(c3)c(F)nn4C)cc2)C(=O)C2CCCCC2)c1 [75.18, (E)-Methyl 3-(3-(N-(4-(3-fluoro-1-methyl-1H-indazol-5-yl)benzyl)cyclohexanecarboxamido)phenyl) acrylate] | ≤ 1000
CCc1cc(-c2ccc(N(C)C)cc2)ccc1CN(C(=O)C1CCCCC1)c1cccc(/C=C/C(=O)OC)c1 [62.14, (E)-Methyl 3-(3-(N-((4′-(dimethylamino)-3-ethyl-[1,1′-biphenyl]-4-yl)methyl)cyclohexanecarboxamido)phenyl) acrylate] | ≤ 1000
COC(=O)/C=C/c1cccc(N(Cc2ccc(-c3ccc(C(=O)OC)cc3)cc2)C(=O)C2CCCCC2)c1 [62.3, (E)-Methyl 4′-((N-(3-(3-methoxy-3-oxoprop-1-en-1-yl)phenyl)cyclohexanecarboxamido)methyl)-[1,1′-biphenyl]-4-carboxylate] | 1000 to 10000
COC(=O)/C=C/c1cccc(N(Cc2ccc(-c3ccc(N(C)C)cc3)cc2)C(=O)C2CCSCC2)c1 [13.9, (E)-Methyl 3-(3-(N-((4′-(dimethylamino)-[1,1′-biphenyl]-4-yl)methyl)tetrahydro-2H-thiopyran-4-carboxamido)phenyl)acrylate] | ≤ 1000
COC(=O)/C=C/c1cccc(N(Cc2ccc(-c3ccc(OC)c(C)c3)cc2)C(=O)C2CCN(C(=O)OC(C)(C)C)CC2)c1 [62.5, (E)-tert-Butyl 4-(((4′-methoxy-3′-methyl-[1,1′-biphenyl]-4-yl)methyl)(3-(3-methoxy-3-oxoprop-1-en-1-yl)phenyl)carbamoyl)piperidine-1-carboxylate] | 1000 to 10000
COC(=O)/C=C/c1cccc(N(Cc2ccc(NC(=O)c3ccccc3)cc2)C(=O)C2CCCCC2)c1 [compound 100, (E)-Methyl 3-(3-(N-(4-benzamidobenzyl)cyclohexanecarboxamido)phenyl)acrylate] | 1000 to 10000
COC(=O)/C=C/c1cccc(N(Cc2ccc(-c3ccc(N(C)C)cc3)cc2)C(=O)C2CCCOC2)c1 (stereo not shown) [17.3, (E)-Methyl 3-(3-(N-((4′-(dimethylamino)-[1,1′-biphenyl]-4-yl)methyl)tetrahydro-2H-pyran-3-carboxamido)phenyl)acrylate] | 1000 to 10000
COC(=O)/C=C/c1cccc(N(Cc2ccc(-c3ccc(N(C)C)cc3)cc2)C(=O)C2CCCCO2)c1 (stereo not shown) [17.1, (E)-Methyl 3-(3-(N-((4′-(dimethylamino)-[1,1′-biphenyl]-4-yl)methyl)tetrahydro-2H-pyran-2-carboxamido)phenyl)acrylate] | ≤ 1000
COC(=O)/C=C/c1cccc(N(Cc2ccc(N(C)Cc3ccccc3)cc2)C(=O)C2CCCCC2)c1 [compound 103, (E)-Methyl 3-(3-(N-(4-(benzyl(methyl)amino)benzyl)cyclo-hexanecarboxamido)phenyl)acrylate] | > 10000
COC(=O)/C=C/c1cccc(N(Cc2ccc(-c3ccc(OC)c(C)c3)cc2)C(=O)C2CCN(C(C)=O)CC2)c1 [62.16, (E)-Methyl 3-(3-(1-acetyl-N-((4′-methoxy-3′-methyl-[1,1′-biphenyl]-4-yl)methyl)piperidine-4-carboxamido)phenyl)acrylate] | 1000 to 10000
COC(=O)/C=C/c1cccc(N(Cc2ccc(-c3ccc4c(c3)nnn4C)cc2)C(=O)C2CCCCC2)c1 [75.1, (E)-Methyl 3-(3-(N-(4-(1-methyl-1H-benzo[d][1,2,3]triazol-5-yl)benzyl)cyclohexanecarboxamido)phenyl) acrylate] | 1000 to 10000
COC(=O)/C=C/c1cccc(N(Cc2ccc(-c3cnc(N(C)C)cn3)cc2)C(=O)C2CCCCC2)c1 [75.4, (E)-Methyl 3-(3-(N-(4-(5-(dimethylamino)pyrazin-2-yl)benzyl)cyclohexanecarboxamido)phenyl) acrylate] | 1000 to 10000
COC(=O)/C=C/c1cccc(N(Cc2ccc(-c3ccc(N(C)C)cc3)cc2)C(=O)c2ccc(O)cc2)c1 [13.21, (E)-Methyl 3-(3-(N-((4′-(dimethylamino)-[1,1′-biphenyl]-4-yl)methyl)-4-hydroxybenzamido)phenyl)acrylate] | ≤ 1000
COC(=O)/C=C/c1cccc(N(Cc2ccc(-c3ccc(N(C)C)cc3)c(C#N)c2)C(=O)C2CCCCC2)c1 [62.11, (E)-Methyl 3-(3-(N-((2-cyano-4′-(dimethylamino)-[1,1′-biphenyl]-4-yl)methyl)cyclohexanecarboxamido)phenyl) acrylate] | ≤ 1000
